Read-outs that look alike come from different tables or passages of the source.
Columns and labels:
WT PETNR [1] = target: T1, WT PETNR (Enterobacter cloacae, UniProt P71278); test: Stopped-flow FMN reduction (reductive half-reaction, hydride transfer) of WT PETNR by coenzyme; settings: for kobs1 / A2 (amplitude of kobs2 out of total absorbance change) / kobs2: 10 mM NADPH or 25 mM NADH, pH 7.0
L25I PETNR = L25I PETNR (Enterobacter cloacae, UniProt P71278, L26I); settings: for kobs1 / A2 (amplitude of kobs2 out of total absorbance change) / kobs2: 10 mM NADPH or 25 mM NADH, pH 7.0
L25I PETNR, sequence (P71278 entry or part of it L26I): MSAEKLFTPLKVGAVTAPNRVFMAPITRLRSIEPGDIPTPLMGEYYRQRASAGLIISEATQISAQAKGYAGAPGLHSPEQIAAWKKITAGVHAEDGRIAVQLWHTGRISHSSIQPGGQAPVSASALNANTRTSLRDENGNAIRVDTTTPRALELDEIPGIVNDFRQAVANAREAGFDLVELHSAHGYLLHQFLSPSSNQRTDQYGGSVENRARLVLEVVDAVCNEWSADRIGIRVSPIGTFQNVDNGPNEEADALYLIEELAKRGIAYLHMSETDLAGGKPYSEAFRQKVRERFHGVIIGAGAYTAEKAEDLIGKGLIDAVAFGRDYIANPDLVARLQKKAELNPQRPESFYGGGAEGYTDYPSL

WT PETNR [2] = target: T1, WT PETNR; test: pH dependence of FMN reduction of WT PETNR in MTEN buffer; format: biochemical, Enterobacter Cloacae PB2; design: made in house; settings: for Isotope effect on ΔCp⧧ / Isotope effect on ΔHT0⧧ / Isotope effect on ΔST0⧧: (R)-[4-2H]-NADPH - NADPH
Experimental: (R)-[4-2H]-NADPH at pH 6, pH 7 and pH9 (A) and the corresponding temperature dependencies of the observed primary kinetic isotope effects (B). The measurements were performed in MTEN buffer (50 mM MES, 25 mM Tris, 25 mM ethanola-mine, and 100 mM NaCl), which has a useful buffering capacity and minimal change in ionic strength over the pH range 6-9 in which PETNR is stable; we attempted testing PETNR in pH 5 as well, but the enzyme is unstable at this pH. The observed rate constants of FMN reduction at pH 7 in MTEN buffer are essentially the same to those measured in 50 mM potassium phosphate buffer, pH 7 and similar observation are valid for the KIEs values (Table S3).The rate of FMN reduction is essentially insensitive to pH across the whole temperature range (5-40 °C), and also that KIEs values are essentially not affected by changes in pH (the rate of FMN reduction by (R)-[4-2H]-NADPH is independent of pH as well across all temperatures studied; see Table S3 for extracted thermodynamic parameters). Although these experiments cannot completely exclude any kinetic […]
of H-transfer and protonation (which would lead to pH-dependent rates) which makes it very likely that the observed rate are reporting directly on the H-transfer step.
Table S3. Extracted Thermodynamic Parameters from pH Dependence Studies.
(kJ mol-1) (J mol-1 K-1) (kJ mol-1 K-1)

L25A PETNR = L25A PETNR (Enterobacter cloacae, UniProt P71278, L26A); settings: for kobs1 / kobs2 / A2 (amplitude of kobs2 out of total absorbance change): 10 mM NADPH or 25 mM NADH, pH 7.0
L25A PETNR, sequence (P71278 entry or part of it L26A): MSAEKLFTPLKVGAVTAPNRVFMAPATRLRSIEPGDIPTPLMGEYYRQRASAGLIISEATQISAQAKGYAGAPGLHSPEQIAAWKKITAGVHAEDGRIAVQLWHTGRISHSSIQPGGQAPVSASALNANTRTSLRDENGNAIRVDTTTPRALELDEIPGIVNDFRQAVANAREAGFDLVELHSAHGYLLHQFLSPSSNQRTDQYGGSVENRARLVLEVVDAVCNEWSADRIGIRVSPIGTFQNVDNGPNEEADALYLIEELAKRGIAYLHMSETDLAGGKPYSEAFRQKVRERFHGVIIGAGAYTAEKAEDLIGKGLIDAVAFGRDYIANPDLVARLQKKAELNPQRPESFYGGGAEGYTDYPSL

[3] = T0 = 298 K, fit of kobs1 (5–40 °C) to eq 1
[4] = deuterated minus protiated coenzyme, T0 = 298 K

T1 sequence (P71278 entry or part of it): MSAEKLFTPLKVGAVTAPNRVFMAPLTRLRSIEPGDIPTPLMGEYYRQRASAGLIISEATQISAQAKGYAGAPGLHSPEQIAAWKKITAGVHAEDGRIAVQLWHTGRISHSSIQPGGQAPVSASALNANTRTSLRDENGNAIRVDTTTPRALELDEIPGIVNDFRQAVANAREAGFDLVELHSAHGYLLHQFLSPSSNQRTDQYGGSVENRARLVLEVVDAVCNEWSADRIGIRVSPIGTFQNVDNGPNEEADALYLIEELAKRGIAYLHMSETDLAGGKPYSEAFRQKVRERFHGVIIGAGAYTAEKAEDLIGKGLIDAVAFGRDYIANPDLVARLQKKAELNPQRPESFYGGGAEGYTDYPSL

[2H][C@@H]1C=CN([C@@H]2O[C@H](COP(=O)(O)OP(=O)(O)OC[C@H]3O[C@@H](n4cnc5c(N)ncnc54)[C@H](OP(=O)(O)O)[C@@H]3O)[C@@H](O)[C@H]2O)C=C1C(N)=O [(R)-[4-^2H]-NADPH]
kobs1 (WT PETNR [1]; 5 °C): 1.51 ± 0.01 s⁻¹
kobs1 (WT PETNR [1]; 10 °C): 2.13 ± 0.01 s⁻¹
kobs1 (WT PETNR [1]; 15 °C): 2.90 ± 0.01 s⁻¹
kobs1 (WT PETNR [1]; 20 °C): 3.95 ± 0.02 s⁻¹
kobs1 (WT PETNR [1]; 25 °C): 5.20 ± 0.04 s⁻¹
kobs1 (WT PETNR [1]; 30 °C): 6.59 ± 0.04 s⁻¹
A2 (amplitude of kobs2 out of total absorbance change) (WT PETNR [1]; 35 °C): 2.54 ± 0.53%
kobs1 (WT PETNR [1]; 35 °C): 8.48 ± 0.03 s⁻¹
kobs2 (WT PETNR [1]; 35 °C): 1.22 ± 0.45 s⁻¹
A2 (amplitude of kobs2 out of total absorbance change) (WT PETNR [1]; 40 °C): 3.41 ± 0.65%
kobs1 (WT PETNR [1]; 40 °C): 9.96 ± 0.18 s⁻¹
kobs2 (WT PETNR [1]; 40 °C): 1.11 ± 0.24 s⁻¹
ΔCp^⧧ (WT PETNR [1]; [3]): –0.32 ± 0.04 kJ mol^–1 K^–1
ΔHT0^⧧ (WT PETNR [1]; [3]): 36.8 ± 0.3 kJ mol^–1
Isotope Effect on ΔCp^⧧ (WT PETNR [1]; [4]): 0.18 ± 0.06 kJ mol^–1 K^–1
Isotope Effect on ΔHT0^⧧ (ΔΔHT0^⧧) (WT PETNR [1]; [4]): 6.4 ± 0.4 kJ mol^–1
Isotope Effect on ΔST0^⧧ (WT PETNR [1]; [4]): 5.8 ± 1.5 J mol^–1 K^–1
kobs1 (L25I PETNR; 5 °C): 1.26 ± 0.02 s⁻¹
kobs1 (L25I PETNR; 15 °C): 2.46 ± 0.01 s⁻¹
A2 (amplitude of kobs2 out of total absorbance change) (L25I PETNR; 20 °C): 2.63 ± 0.15%
kobs1 (L25I PETNR; 20 °C): 3.42 ± 0.03 s⁻¹
kobs2 (L25I PETNR; 20 °C): 0.19 ± 0.04 s⁻¹
A2 (amplitude of kobs2 out of total absorbance change) (L25I PETNR; 25 °C): 3.59 ± 0.27%
kobs1 (L25I PETNR; 25 °C): 4.50 ± 0.02 s⁻¹
kobs2 (L25I PETNR; 25 °C): 0.27 ± 0.03 s⁻¹
kobs1 (L25I PETNR; 30 °C): 5.72 ± 0.06 s⁻¹
kobs2 (L25I PETNR; 30 °C): 0.28 ± 0.01 s⁻¹
A2 (amplitude of kobs2 out of total absorbance change) (L25I PETNR; 35 °C): 7.05 ± 0.36%
kobs1 (L25I PETNR; 35 °C): 7.20 ± 0.07 s⁻¹
kobs2 (L25I PETNR; 35 °C): 0.42 ± 0.07 s⁻¹
A2 (amplitude of kobs2 out of total absorbance change) (L25I PETNR; 40 °C): 12.46 ± 0.45%
kobs1 (L25I PETNR; 40 °C): 8.66 ± 0.09 s⁻¹
ΔCp^⧧ (L25I PETNR; [3]): –0.53 ± 0.09 kJ mol^–1 K^–1
ΔHT0^⧧ (L25I PETNR; [3]): 36.7 ± 0.5 kJ mol^–1
Isotope Effect on ΔCp^⧧ (L25I PETNR; [4]): –0.11 ± 0.11 kJ mol^–1 K^–1
Isotope Effect on ΔHT0^⧧ (L25I PETNR; [4]): 6.3 ± 0.7 kJ mol^–1
Isotope Effect on ΔST0^⧧ (L25I PETNR; [4]): 5.4 ± 2.5 J mol^–1 K^–1
ΔCp⧧ (WT PETNR [2]; pH 6, MTEN buffer): -0.57 ± 0.15 kJ mol-1 K-1
ΔHT0⧧ (WT PETNR [2]; pH 6, MTEN buffer): 7.89 ± 0.22 kcal/mol
Isotope effect on ΔCp⧧ (WT PETNR [2]; pH 6, MTEN buffer): 0.01 ± 0.18 kJ mol-1 K-1
Isotope effect on ΔHT0⧧ (WT PETNR [2]; pH 6, MTEN buffer): 1.39 ± 0.263 kcal/mol
Isotope effect on ΔST0⧧ (WT PETNR [2]; pH 6, MTEN buffer): 3.7 ± 3.5 J mol-1 K-1
ΔCp⧧ (WT PETNR [2]; pH 7, MTEN buffer): -0.54 ± 0.09 kJ mol-1 K-1
ΔHT0⧧ (WT PETNR [2]; pH 7, MTEN buffer): 8.27 ± 0.12 kcal/mol
ΔST0⧧ (WT PETNR [2]; pH 7, MTEN buffer): -115.0 ± 1.8 J mol-1 K-1
Isotope effect on ΔCp⧧ (WT PETNR [2]; pH 7, MTEN buffer): 0.07 ± 0.12 kJ mol-1 K-1
Isotope effect on ΔHT0⧧ (WT PETNR [2]; pH 7, MTEN buffer): 1.67 ± 0.17 kcal/mol
Isotope effect on ΔST0⧧ (WT PETNR [2]; pH 7, MTEN buffer): 7.7 ± 2.4 J mol-1 K-1
ΔCp⧧ (WT PETNR [2]; pH 9, MTEN buffer): -0.48 ± 0.07 kJ mol-1 K-1
ΔHT0⧧ (WT PETNR [2]; pH 9, MTEN buffer): 8.48 ± 0.096 kcal/mol
ΔST0⧧ (WT PETNR [2]; pH 9, MTEN buffer): -111.9 ± 1.3 J mol-1 K-1
Isotope effect on ΔCp⧧ (WT PETNR [2]; pH 9, MTEN buffer): -0.03 ± 0.13 kJ mol-1 K-1
Isotope effect on ΔHT0⧧ (WT PETNR [2]; pH 9, MTEN buffer): 1.58 ± 0.19 kcal/mol
Isotope effect on ΔST0⧧ (WT PETNR [2]; pH 9, MTEN buffer): 6.7 ± 2.6 J mol-1 K-1
kobs1 (L25A PETNR; 5 °C): 2.37 ± 0.01 s⁻¹
kobs1 (L25A PETNR; 10 °C): 3.33 ± 0.03 s⁻¹
kobs1 (L25A PETNR; 15 °C): 4.59 ± 0.03 s⁻¹
kobs1 (L25A PETNR; 20 °C): 6.14 ± 0.04 s⁻¹
kobs1 (L25A PETNR; 25 °C): 8.01 ± 0.22 s⁻¹
kobs2 (L25A PETNR; 25 °C): 0.03 ± 0.03 s⁻¹
A2 (amplitude of kobs2 out of total absorbance change) (L25A PETNR; 30 °C): 5.83 ± 0.60%
kobs1 (L25A PETNR; 30 °C): 10.24 ± 0.05 s⁻¹
kobs2 (L25A PETNR; 30 °C): 0.16 ± 0.03 s⁻¹
A2 (amplitude of kobs2 out of total absorbance change) (L25A PETNR; 35 °C): 14.06 ± 0.45%
kobs1 (L25A PETNR; 35 °C): 11.89 ± 0.07 s⁻¹
kobs2 (L25A PETNR; 35 °C): 0.17 ± 0.01 s⁻¹
A2 (amplitude of kobs2 out of total absorbance change) (L25A PETNR; 40 °C): 31.19 ± 1.07%
kobs1 (L25A PETNR; 40 °C): 12.39 ± 0.22 s⁻¹
kobs2 (L25A PETNR; 40 °C): 0.26 ± 0.02 s⁻¹
ΔCp^⧧ (L25A PETNR; [3]): –0.78 ± 0.15 kJ mol^–1 K^–1
ΔHT0^⧧ (L25A PETNR; [3]): 31.9 ± 1.1 kJ mol^–1
ΔST0^⧧ (L25A PETNR; [3]): –120.5 ± 3.7 J mol^–1 K^–1
Isotope Effect on ΔCp^⧧ (L25A PETNR; [4]): 0.14 ± 0.19 kJ mol^–1 K^–1
Isotope Effect on ΔHT0^⧧ (L25A PETNR; [4]): 8.6 ± 1.27 kJ mol^–1
Isotope Effect on ΔST0^⧧ (L25A PETNR; [4]): 13.3 ± 5.6 J mol^–1 K^–1
